Tests used:
SK-OV-3 = assay: Inhibition of cells growth by colorimetric (SRB) assay, SK-OV-3; details: SRB assay, 48 hours exposure
Summary of the method: (§1)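 Human tumour cells in RPMI 1640 with 10% FBS were seeded at 5×10^3 cells/well, allowed to attach for 18 h, then exposed to samples at 10 to 10^−8 μg/ml for 48 h. Growth was measured by SRB staining after TCA fixation, with absorbance read at 490 nm in triplicate wells.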

A-549 = assay: Inhibition of cells growth by colorimetric (SRB) assay, A-549; details: SRB assay, 48 hours exposure
Summary of the method: as §1

IGROV-ET = assay: Inhibition of cells growth by colorimetric (SRB) assay, IGROV-ET; details: SRB assay, 48 hours exposure
Summary of the method: as §1

SK-MEL-28 = assay: Inhibition of cells growth by colorimetric (SRB) assay, SK-MEL-28; details: SRB assay, 48 hours exposure
Summary of the method: as §1

SK-BR-3 = assay: Inhibition of cells growth by colorimetric (SRB) assay, SK-BR-3; details: SRB assay, 48 hours exposure
Summary of the method: as §1

LNCaP = assay: Inhibition of cells growth by colorimetric (SRB) assay, LNCaP; details: SRB assay, 48 hours exposure
Summary of the method: as §1

HMEC1 = assay: Inhibition of cells growth by colorimetric (SRB) assay, HMEC1; details: SRB assay, 48 hours exposure
Description: The finality of these assays is to interrupt the growth of a “in vitro” tumor cell culture by means a continued exhibition of the cells to the sample to be testing.
This form of the assay employs 96 well cell culture microplates of 9 mm diameter (Faircloth, 1988; Mosmann, 1983). Most of the cell lines are obtained from American Type Culture Collection (ATCC) derived from different human cancer types.
Cells are maintained in RPMI 1640 10% FBS, supplemented with 0.1 g/l penicillin and 0.1 g/l streptomycin sulphate and then incubated at 37° C., 5% CO2 and 98% humidity. For the experiments, cells were harvested from subconfluent cultures using trypsin and resuspended in fresh medium before plating.
Cells are seeded in 96 well microtiter plates, at 5×10^3 cells per well in aliquots of 195 μl medium, and they are allowed to attach to the plate surface by growing in drug free medium for 18 hours. Afterward, samples are added in aliquots of 5 μl in a ranging from 10 to 10^−8 μg/ml, dissolved in DMSO/EtOH/PBS (0.5:0.5:99). After 48 hours exposure, the antitumor effect are measured by the SRB methodology: cells are fixed by adding 50 μl of cold 50% (wt/vol) trichloroacetic acid (TCA) and incubating for 60 minutes at 4° C. Plates are washed with deionized water and dried. One hundred μl of SRB solution (0.4% wt/vol in 1% acetic acid) is added to each microtiter well and incubated for 10 minutes at room temperature. Unbound SRB is removed by washing with 1% acetic acid. Plates are air dried and bound stain is solubilized with Tris buffer. Optical densities are read on a automated spectrophotometric plate reader at a single wavelength of 490 nm.
The values for mean +/−SD of data from triplicate wells are calculated. Some parameters for cellular responses can be calculated: GI=growth inhibition, TGI=total growth inhibition (cytostatic effect) and LC=cell killing (cytotoxic effect).

PANC-1 = assay: Inhibition of cells growth by colorimetric (SRB) assay, PANC-1; details: SRB assay, 48 hours exposure
Summary of the method: as §1

K-562 = assay: Inhibition of cells growth by colorimetric (SRB) assay, K-562; details: SRB assay, 48 hours exposure
Summary of the method: as §1

DU-145 = assay: Inhibition of cells growth by colorimetric (SRB) assay, DU-145
Summary of the method: as §1

IGROV-1 = assay: Inhibition of cells growth by colorimetric (SRB) assay, IGROV-1; details: SRB assay, 48 hours exposure
Summary of the method: as §1

HT-29 = assay: Inhibition of cells growth by colorimetric (SRB) assay, HT-29; details: SRB assay, 48 hours exposure
Summary of the method: as §1

LoVo = assay: Inhibition of cells growth by colorimetric (SRB) assay, LoVo; details: SRB assay, 48 hours exposure
Summary of the method: as §1

LoVo-Dox = assay: Inhibition of cells growth by colorimetric (SRB) assay, LoVo-Dox; details: SRB assay, 48 hours exposure
Summary of the method: as §1

In the case of `Cc1ccc2c(-c3ccnc(N)n3)c3ccnc(N)n3c2n1` [Compound 24], the “TGI SKOV-3” value (SK-OV-3) is reported as 1.00E−05, the GI50 (SK-OV-3; read-out: GI50 SKOV-3) is reported as 1390 nM and the CC50 (SK-OV-3; read-out: LC50 SKOV-3) is reported as no less than 34300 nM. For the same compound, the “TGI A-549” value (A-549) was 6.87E−06, the GI50 (A-549; read-out: GI50 A-549) was 1380 nM and the CC50 (A-549; read-out: LC50 A-549) was 17500 nM. For the same compound, the “TGI IGROV-ET” value (IGROV-ET) was 7.11E−06, the GI50 (IGROV-ET; read-out: GI50 IGROV-ET) was 1010 nM and the CC50 (IGROV-ET; read-out: LC50 IGROV-ET) was no less than 34300 nM. The “TGI MEL-28” value (SK-MEL-28) was 3.43E−06, the GI50 (SK-MEL-28; read-out: GI50 MEL-28) was 721 nM and the CC50 (SK-MEL-28; read-out: LC50 MEL-28) was 12600 nM. The “TGI SK-BR-3” value (SK-BR-3) was 4.77E−06, the GI50 (SK-BR-3; read-out: GI50 SK-BR-3) was 1040 nM and the CC50 (SK-BR-3; read-out: LC50 SK-BR-3) was 10400 nM. The “TGI LN-caP” value (LNCaP) was 7.24E−07, the GI50 (LNCaP; read-out: GI50 LN-caP) was 174 nM and the CC50 (LNCaP; read-out: LC50 LN-caP) was no less than 34300 nM. For the same compound, the “TGI H-MEC-1” value (HMEC1; in M (unit assumed)) was 7.86E−07, the GI50 (HMEC1; read-out: GI50 H-MEC-1) was 247 nM and the CC50 (HMEC1; read-out: LC50 H-MEC-1) was 2670 nM. For the same compound, the “TGI PANC-1” value (PANC-1) was 2.06E−05, the GI50 (PANC-1; read-out: GI50 PANC-1) was 3880 nM and the CC50 (PANC-1; read-out: LC50 PANC-1) was no less than 34300 nM. The “TGI K-562” value (K-562) was 7.35E−06, the GI50 (K-562; read-out: GI50 K-562) was 1620 nM and the CC50 (K-562; read-out: LC50 K-562) was 22200 nM. For the same compound, the CC50 (DU-145; Homo sapiens, DU-145, 48 h, read-out: LC50 DU-145, SRB assay, 48 hours exposure) was 15600 nM, the “TGI DU-145” value (DU-145; SRB assay, 48 hours exposure) was 1.91E−06 and the GI50 (DU-145; read-out: GI50 DU-145, SRB assay, 48 hours exposure) was 831 nM. The “TGI IGROV” value (IGROV-1) was 6.38E−06, the GI50 (IGROV-1; read-out: GI50 IGROV) was 995 nM and the CC50 (IGROV-1; read-out: LC50 IGROV) was 23000 nM. For the same compound, the “TGI HT-29” value (HT-29) was 3.43E−05, the GI50 (HT-29; read-out: GI50 HT-29) was 16400 nM and the CC50 (HT-29; read-out: LC50 HT-29) was no less than 34300 nM. The “TGI LOVO” value (LoVo) was 1.22E−06, the GI50 (LoVo; read-out: GI50 LOVO) was 325 nM and the CC50 (LoVo; read-out: LC50 LOVO) was greater than 34300 nM. For the same compound, the “TGI LOVO-DOX” value (LoVo-Dox) was 3.43E−06, the GI50 (LoVo-Dox; read-out: GI50 LOVO-DOX) was 642 nM and the CC50 (LoVo-Dox; read-out: LC50 LOVO-DOX) was no less than 34300 nM.

From patent US7772241B2, “Variolin derivatives and their use as antitumor agents” (Pharma Mar S.A., priority 2001, dated 2010)
